Values after ≈ are worked out from the molar mass of the structure shown. Active and inactive are the calls of the source. Unless noted, no cut-off for these calls is given here.

In assay [1] the test system is Vero. Put plainly: Cytotoxicity against african green monkey Vero cells by colorimetric assay. It counts as cell-based. The settings on record: Chlorocebus sabaeus.
For assay [2], the system named is Mycobacterium tuberculosis. Put plainly: Antimycobacterial activity against Mycobacterium tuberculosis Erdman infected in BALB/c mouse assessed as reduction of bacterial load at 10 mg/kg, po qd for 5 days per week administered 60 days after infection measured after 85 days post infection relative to untreated control. Format: functional.
In assay [3] the test system is Mycobacterium tuberculosis. Put plainly: Antimycobacterial activity against Mycobacterium tuberculosis H37Rv ATCC 27294 in GAS medium after 1 week by microplate alamar blue assay. The settings on record: H37Rv ATCC 27294, 168 h. Format: functional. (Resazurin is reduced to fluorescent resorufin, in cell work by metabolically active cells.)
Assay [4] concerns Mycobacterium tuberculosis. Put plainly: Antimycobacterial activity against Mycobacterium tuberculosis H37Rv ATCC 27294 in GAST medium after 1 week by microplate alamar blue assay. The following applies: H37Rv ATCC 27294, 168 h. It counts as functional.
In assay [5] the test system is Sporobolomyces salmonicolor. Put plainly: Antimicrobial activity against Sporobolomyces salmonicolor SBUG 549. It counts as functional, organism-based.
For assay [6], the system named is Colletotrichum. Kind of assay: Antifungal activity against Glomerella. It counts as functional, organism-based.
The test system of assay [7] is Mycolicibacterium vaccae. Kind of assay: Antimycobacterial activity against Mycobacterium vaccae 10670 by agar diffusion assay. It counts as functional, organism-based. For orientation: In agar diffusion tests the substance spreads into inoculated agar from a disc or well.
Assay [8] deals with Mycolicibacterium smegmatis. Put plainly: Antimycobacterial activity against Mycobacterium smegmatis SG 987. Format: functional, organism-based.
In assay [9] the test system is Mycolicibacterium fortuitum. Kind of assay: Antimycobacterial activity against Mycobacterium fortuitum B by agar diffusion assay. Format: functional, organism-based.
Assay [10] has as its system Micrococcus luteus. Kind of assay: Antibacterial activity against Micrococcus luteus ATCC 10240. Format: functional, organism-based.
Assay [11] deals with Proteus vulgaris. Put plainly: Antibacterial activity against Proteus vulgaris OX 19. Format: functional, organism-based.
Assay [12] concerns Mycolicibacterium aurum. Kind of assay: Antimycobacterial activity against Mycobacterium aurum SB 66. It counts as functional, organism-based.
Assay [13] deals with Candida albicans. Kind of assay: Antifungal activity against Candida albicans. It counts as functional, organism-based.
For assay [14], the system named is Mycolicibacterium vaccae. Kind of assay: Antimycobacterial activity against Mycobacterium vaccae 10670. Format: functional, organism-based.
For assay [15], the system named is Mycobacterium tuberculosis. Kind of assay: Antimycobacterial activity against Mycobacterium tuberculosis assessed as growth inhibition at 12.5 ug/mL. It counts as functional.
Assay [16] has as its system Bacillus subtilis. Put plainly: Antibacterial activity against Bacillus subtilis ATCC 6633. Format: functional, organism-based.
The test system of assay [17] is Staphylococcus aureus. Put plainly: Antibacterial activity against Staphylococcus aureus SG 511. Format: functional, organism-based.
Assay [18] concerns Mycobacterium avium. Put plainly: Antimycobacterial activity against Mycobacterium avium MAC 116. Format: functional, organism-based.
Assay [19] has as its system Mycobacterium avium. Put plainly: Antimycobacterial activity against Mycobacterium avium MAC 100. Format: functional, organism-based.
Assay [20] deals with Mycobacterium avium. Put plainly: Antimycobacterial activity against Mycobacterium avium MAC 101. It counts as functional, organism-based.
Assay [21] has as its system Mycolicibacterium smegmatis. Kind of assay: Antimycobacterial activity against Mycobacterium smegmatis. Format: functional.
Assay [22] relates to Mycolicibacterium aurum. Kind of assay: Antimycobacterial activity against Mycobacterium aurum DSM 43536. Format: functional, organism-based.
Assay [23] concerns Mycolicibacterium fortuitum. Put plainly: Antimycobacterial activity against Mycobacterium fortuitum B. Format: functional, organism-based.
Assay [24] has as its system Mycobacterium tuberculosis. Put plainly: Antimycobacterial activity against Mycobacterium tuberculosis Erdman infected in BALB/c mouse assessed as reduction of bacterial load at 200 mg/kg, po qd for 5 days per week administered 60 days after infection measured after 85 days post infection. It counts as functional, organism-based. On the set-up: dose 200 mg/kg.
Assay [25] has as its system Mycobacterium avium. Put plainly: Antimycobacterial activity against Mycobacterium avium MAC 108. Format: functional, organism-based.
Assay [26] concerns Escherichia coli. Put plainly: Antibacterial activity against Escherichia coli SG 458. It counts as functional, organism-based.
Assay [27] deals with Mycobacterium avium. Kind of assay: Antimycobacterial activity against Mycobacterium avium MAC 109. Format: functional, organism-based.

In the case of `CO[C@H]1/C=C/O[C@@]2(C)Oc3c(C)c(O)c4c(O)c(c(/C=N/N5CCN(C)CC5)c(O)c4c3C2=O)NC(=O)/C(C)=C\C=C\[C@H](C)[C@H](O)[C@@H](C)[C@@H](O)[C@@H](C)[C@H](OC(C)=O)[C@@H]1C` [RIFAMPIN], in assay [1], the half-inhibitory concentration (IC50) (commonly the concentration needed to halve the response being measured) came to 125 µM. For the same compound, in [2], the “fold change (FC)” value is above 2. For the same compound, the MIC (usually the lowest concentration found to suppress growth) is 0.06 µM (≈ 0.0494 µg/mL) in [3] and 0.01 µM (≈ 0.00823 µg/mL) in assay [4].

As to `CCCCCCCCCCCCCCCC(=O)N(O)CCCC[C@H](NC(=O)[C@@H]1COC(c2ccccc2O)=N1)C(=O)O[C@@H](C)CC(=O)N[C@H]1CCCCN(O)C1=O` [MYCOBACTIN S], the result in assay [5], in assay [6], in assay [8], in assay [10], in [11] and in assay [12] was inactive. Further, the result in assay [13], in [14], in [16], in assay [17], in [18] and in [19] was inactive. Moreover, the result in assay [20], in assay [22], in assay [23], in assay [24], in [25] and in assay [26] was inactive. Also, in assay [27], the outcome was inactive. The result in assay [7] and in assay [9] was Active. In addition, the inhibition (in general, the change of the read-out against control, counted positive when it falls) at 12.5 µg/mL in assay [15] came to 99%. Further, 3.1 µM (≈ 2.49 µg/mL) was the least that counted as inhibitory in [21] (MIC).

(Values after ChEMBL document CHEMBL1157845, “Structure-activity relationship of new anti-tuberculosis agents derived from oxazoline and oxazole benzyl esters” (Eur J Med Chem, 2010).)
